Data on 4 molecules can be found in patent EP0082385A1, “1-(3-Nitrophenyl)pyrido(2,3-d)pyrimidine-2,4(1H,3H) diones and 1-(3-nitrophenyl)quinazoline-2-4(1H,3H)diones as cutaneous medicaments” (Troponwerke GmbH & Co. KG, priority 1981, dated 1983).

Molecules are shown by their SMILES. Where two headings read alike, the source gives them in different places.

The test system of data set [1] is durch Kaolin induzierten Ödems der Rattenpfote. The experiment in a line: Kaolin-induced rat paw oedema, substance applied to shorn back skin or given p.o. Format: in vivo, Ratte. The settings on record: for ED50: 5 h.
Data set [2] deals with Carrageenan-Pfotenödems der Ratte. The experiment in a line: Carrageenan rat paw oedema, preparations of TVX. Format: in vivo. From the text:
Aufbereitung von TVX - Hemmung des Carrageenan-Pfotenödems der Ratte
For orientation: In the carrageenan paw model, swelling and tenderness develop within hours.

The subject of data set [3] is emetische Erscheinungen beim Hund. Conditions: dog, in vivo. Here is the method:
Die Vermeidung der Nebenwirkungen durch cutane Applikation von Verb. 1 ist nachfolgend beispielhaft für Verb. 1 beschrieben. • 1. Sowohl nach oraler als auch intramuskulärer Applikation von Verb. 1 treten bereits ab einer Dosis von etwa 0.1 mg/kg beim Hund starke emetische Erscheinungen auf. Diese emetische Wirkung beim Hund bleibt auch nach cutaner Applikation von 5 mg/kg der Substanz aus. • 2. Verb. […] Verb.

A further data set has as its system Tachyphylaxie bei Ratten. The experiment in a line: Tachyphylaxis (loss of oedema-inhibiting effect) after repeated dosing in rats. Format: in vivo.
Setting [4] is: 0,3 mg/kg cutan, in Dimethylsulfoxid, rat, 5 h after oedema provocation.
The mark [5] stands for this setting: po, p.o., rat, read-out: DE50 (mg/kg) Kaolin-ödem p.o.

On to `O=c1c2ccccc2n(-c2cccc([N+](=O)[O-])c2)c(=O)n1CCF` [Verb. 2, 1-(3-Nitrophenyl)-3-(2-fluorethyl)-chinazolin-2,4(1H, 3H)dion], for which the “% Hemmung des Kaolin-ödems” value in data set [1] (setting [4]) was determined as 56.0%. The ED50 in data set [1] (setting [5]) was 0.2 mg/kg.
Regarding `COC(=O)c1ccccc1O` [Salicyclsäuremethylester, Salicylsäuremethylester, reference compound], the “% Hemmung des Kaolin-ödems” value in data set [1] (solvent alone (without Verb. 1), cutan, rat) is given as 39.4) %.
On to `CCn1c(=O)c2ccccc2n(-c2cccc([N+](=O)[O-])c2)c1=O` [Verb. 1, 1-(3-Nitrophenyl)-3-ethylchinazolin-2.4(1H, 3H)-dion], for which the “% Hemmung” value in data set [2] (preparation: TVX 0.03, Aceton 6.97, IPM 3.00 (total 10.00)) is reported as 51.3%; in data set [2] (preparation: TVX 0.03, Aceton 9.97 (total 10.00)) it was 41.7%; in data set [2] (preparation: TVX 0.03, Essigsäureethylester 6.97, IPM 3.00 (total 10.00)) it was 64.1%; in data set [2] (preparation: TVX 0.03, Essigsäureethylester 9.97 (total 10.00)), 31.0%; in data set [2] (preparation: TVX 0.03, IPM 3.00, Tween 2.00, Isopropanol 4.97 (total 10.00)), 55.1%; in data set [2] (preparation: TVX 0.03, Milchsäureethylester 6.97, IPM 3.00 (total 10.00)), 50.6%. The “% Hemmung” value in data set [2] (preparation: TVX 0.03, Milchsäureethylester 9.97 (total 10.00)) worked out at 42.0%; in data set [2] (preparation: TVX 0.03, Tween 0.50, Dowanol DPM 9.47 (total 10.00)), 62.7%. For the same molecule, the “% Hemmung des Kaolin-ödems” value in data set [1] (0,3 mg/kg cutan, in Cremophor, rat, n = 5) is listed as 14.2%; in data set [1] (0,3 mg/kg cutan, in Dimethylacetamid, rat, n = 5), 50.5%; in data set [1] (0,3 mg/kg cutan, in Dimethylformamid, rat, n = 5), 35.0%; in data set [1] (setting [4]), 48.3%; in data set [1] (0,3 mg/kg cutan, in Erdnußöl, rat, n = 5), 16.7%; in data set [1] (0,3 mg/kg cutan, in Lutrol, rat, n = 5), 18.3%. Also, the “% Hemmung des Kaolin-ödems” value in data set [1] (0,3 mg/kg cutan, in N-Methylpyrrolidon, rat, n = 5) amounted to 63.2%; in data set [1] (0,3 mg/kg cutan, in Ricinusöl, rat, n = 5), 14.2%; in data set [1] (0,3 mg/kg cutan, in Salicylsäuremethylester, rat, n = 5), 77.1%. Besides, the ED50 was determined as 0.3 mg/kg in data set [1] (Rattus norvegicus, topical, cutan in Dimethylsulfoxid, same antiphlogistic effect as 0,3 mg/kg oral, read-out: DE50 nach cutaner Applikation in Dimethylsulfoxid) and 0.3 mg/kg in data set [1] (setting [5]). Moreover, the “Dosis, ab der emetische Wirkung auftritt” value in data set [3] is reported as over 5 mg/kg. The “Dosis, ab der starke emetische Erscheinungen auftreten” value in data set [3] was about 0.1 mg/kg. In addition, the “ödemhemmende Wirkung nach topischer Vorbehandlung” value with Tachyphylaxie bei Ratten (6 days topical pretreatment, in Dimethylsulfoxid, 0.3 mg/kg/Tag) was “eindeutige ödemhemmende Wirkung”. The “Wirkungsverlust (Tachyphylaxie)” value with Tachyphylaxie bei Ratten (cutaneous application) is “vollständig vermieden”. Further, the Tachyphylaxie result in the data set on Tachyphylaxie bei Ratten (oral doses over several days, seen after three to four days) is listed as “deutliche Tachyphylaxie”.
Consider `CCn1c(=O)c2cccnc2n(-c2cccc([N+](=O)[O-])c2)c1=O` [Verb. 3, 1-(3-Nitrophenyl)-3-ethylpyridoL2.3-d/pyrimidin-2,4(1H, 3H)dion], for which the “% Hemmung des Kaolin-ödems” value in data set [1] (setting [4]) is recorded as 79.8%. The ED50 in data set [1] (setting [5]) was found to be 0.1 mg/kg.
